Experimental data as given in US20240108009A1, “1-AMINO-1-CYCLOPROPANECARBOXYLIC ACID AND JASMONIC ACID MIXTURES AND USES THEREOF” (Valent BioSciences LLC, priority 2022, published 2024).

Legend:
Assay type in all cases: in vivo
[1] = tested on: Honeycrisp apples; assay: Apple coloration in Honeycrisp variety (Example 1), percent red pixel area; details: 43 hours post spray; for Average % Red Pixel Area: 50 ppm foliar spray; for Fold Change From control: 50 ppm
Procedure: 10 sets of unripened green apples, Honeycrisp variety, harvested three weeks before the normal harvest date, were each foliar sprayed with either 1) 0.05% of a mixture of polyoxyethylene-polyoxypropylene polymer, propylene glycol, 2-butoxyethanol (Regulaid®, Regulaid is a registered trademark of Kalo, Inc.) as a control, 2) 50 parts per million (“ppm”) jasmonic acid, 3) 50 ppm ACC or 4) a mixture of 50 ppm jasmonic acid and 50 ppm ACC. 43 hours post spray application percent red pixel area (shaded) was measured. Percent red pixel area is an indication of the coloration of the apple fruit.
(§1) To determine if the mixture provided unexpected results, the observed combined efficacy (“OCE”) was divided by the expected combined efficacy (“ECE”) wherein the ECE is calculated by the Abbott method: […]
(§2) wherein ECE is the expected combined efficacy and in which A and B are the fold change from control given by the single active ingredients. If the ratio between the OCE of the mixture and the ECE of the mixture is greater than 1, then greater than expected interactions are present in the mixture. (Gisi, Synergistic Interaction of Fungicides in Mixtures, The American Phytopathological Society, 86:11, 1273-1279, 1996).

[2] = tested on: Aztec Fuji apples; assay: Apple coloration in Aztec Fuji variety (Example 8); details: 34 hours post spray
Procedure: as §1, §2
10 sets of unripened apples, Aztec Fuji variety, harvested three weeks before the normal harvest date, were each foliar sprayed with either 1) 0.05% Regulaid® as a control, 2) 50 ppm jasmonic acid, 3) 300 ppm jasmonic acid, 4) 50 ppm ACC, 5) 300 ppm ACC, 6) a mixture of 50 ppm jasmonic acid and 50 ppm ACC, 7) a mixture of 50 ppm jasmonic acid and 300 ppm ACC, 8) a mixture of 300 ppm jasmonic acid and 50 ppm ACC or 9) a mixture of 300 ppm jasmonic acid and 300 ppm ACC. 34 hours post spray application percent red pixel area (shaded) was measured.

[3] = tested on: Honeycrisp apples; assay: Apple coloration in Honeycrisp variety (Example 5); details: 34 hours post spray
Procedure: as §1, §2
10 sets of unripened apples, Honeycrisp variety, harvested three weeks before the normal harvest date, were each foliar sprayed with either 1) 0.05% Regulaid® as a control, 2) 50 ppm jasmonic acid, 3) 300 ppm jasmonic acid, 4) 50 ppm ACC, 5) 300 ppm ACC, 6) a mixture of 50 ppm jasmonic acid and 50 ppm ACC, 7) a mixture of 50 ppm jasmonic acid and 300 ppm ACC, 8) a mixture of 300 ppm jasmonic acid and 50 ppm ACC or 9) a mixture of 300 ppm jasmonic acid and 300 ppm ACC. 34 hours post spray application percent red pixel area (shaded) was measured.

[4] = tested on: Cripps Pink apples; assay: Apple coloration in Cripps Pink variety (Example 10); details: Cripps Pink (Example 10), 34 hours post spray
Procedure: as §1, §2
(§3) 10 sets of unripened apples, Cripps Pink variety, harvested three weeks before the normal harvest date, were each foliar sprayed with either 1) 0.05% Regulaid® as a control, 2) 50 ppm jasmonic acid, 3) 300 ppm jasmonic acid, 4) 50 ppm ACC, 5) 300 ppm ACC, 6) a mixture of 50 ppm jasmonic acid and 50 ppm ACC, 7) a mixture of 50 ppm jasmonic acid and 300 ppm ACC, 8) a mixture of 300 ppm jasmonic acid and 50 ppm ACC or 9) a mixture of 300 ppm jasmonic acid and 300 ppm ACC. 34 hours post spray application percent red pixel area (shaded) was measured.

[5] = tested on: Gala apples; assay: Apple coloration in Gala variety (Example 2, Table 2); details: 34 hours post spray; for Average % Red Pixel Area: 300 ppm foliar spray; for Fold Change From control: 300 ppm
Procedure: as §1, §2
(§4) 10 sets of unripened apples, Gala variety, harvested three weeks before the normal harvest date, were each foliar sprayed with either 1) 0.05% Regulaid® as a control, 2) 300 ppm jasmonic acid, 3) 300 ppm ACC or 4) a mixture of 300 ppm jasmonic acid and 300 ppm ACC. 34 hours post spray application percent red pixel area (shaded) was measured. Additionally, this study was repeated while adding [S]-trans-2-Amino-4-(2-aminoethoxy)-3-butenoic acid hydrochloride (Retain®, Retain is a registered trademark of Valent BioSciences LLC) to the application.

[6] = tested on: Cripps Pink apples; assay: Apple coloration in Cripps Pink variety, repeat (Example 11); details: Cripps Pink (Example 11, repeat), 34 hours post spray
Procedure: as §1, §2
as §3, with “The experiment detailed in Example 10 was repeated. Specifically, 10” for “10”, “measured. The OCE/ECE ratio formula was modified to ECE=A+B−(A*B) to account for reduced average % red pixel area over control for each of the ACC applications.” for “measured.”

[7] = tested on: Imperial Gala apples; assay: Apple coloration in Imperial Gala variety (Example 3); details: 34 hours post spray
Procedure: as §1, §2
10 sets of unripened apples, Imperial Gala variety, harvested three weeks before the normal harvest date, were each foliar sprayed with either 1) 0.05% Regulaid® as a control, 2) 50 ppm jasmonic acid, 3) 300 ppm jasmonic acid, 4) 50 ppm ACC, 5) 300 ppm ACC, 6) a mixture of 50 ppm jasmonic acid and 50 ppm ACC or 7) a mixture of 300 ppm jasmonic acid and 300 ppm ACC. 34 hours post spray application percent red pixel area (shaded) was measured.

[8] = tested on: Ultima Gala apples; assay: Apple coloration in Ultima Gala variety (Example 4); details: 34 hours post spray
[9] = tested on: Gala apples; assay: Apple coloration in Gala variety, study repeated with Retain added (Example 2, Table 3); details: 300 ppm, 34 hours post spray; for Average % Red Pixel Area: Retain added to the application; for Fold Change From control: Retain added
Procedure: as §1, §2, §4

Row | SMILES | Average % Red Pixel Area [1] [%] | Fold Change From control [1] | Average % Red Pixel Area ([2]; 50 ppm) [%] | Fold Change From control ([2]; 50 ppm) | Average % Red Pixel Area ([2]; 300 ppm) [%] | Fold Change From control ([2]; 300 ppm) | Average % Red Pixel Area ([3]; 50 ppm) [%] | Fold Change From control ([3]; 50 ppm) | Average % Red Pixel Area ([3]; 300 ppm) [%] | Fold Change From control ([3]; 300 ppm) | Average % Red Pixel Area ([4]; 50 ppm) [%] | Fold Change From control ([4]; 50 ppm) | Average % Red Pixel Area ([4]; 300 ppm) [%] | Fold Change From control ([4]; 300 ppm) | Average % Red Pixel Area [5] [%] | Fold Change From control [5] | Average % Red Pixel Area ([6]; 50 ppm) [%] | Fold Change From control ([6]; 50 ppm) | Average % Red Pixel Area ([6]; 300 ppm) [%] | Fold Change From control ([6]; 300 ppm) | also measured
1 | NC1(C(=O)O)CC1 [ACC, 1-amino-1-cyclopropanecarboxylic acid] | 4.74 | 1.18 | 35.07 | 0.10 | 29.25 | −0.09 | 4.70 | −0.49 | 3.80 | 0.59 | 54.12 | 6.67 | 57.97 | 7.15 | 3.63 | 0.92 | 34.68 | 0.70 | 48.78 | 0.99 | Average % Red Pixel Area ([7]; 50 ppm): 7.02%; Fold Change From control ([7]; 50 ppm): 0.03; Average % Red Pixel Area ([7]; 300 ppm): 4.66%; Fold Change From control ([7]; 300 ppm): −0.31; Average % Red Pixel Area ([8]; 50 ppm): 10.44%; Fold Change From control ([8]; 50 ppm): −0.06; Average % Red Pixel Area ([8]; 300 ppm): 14.87%; Fold Change From control ([8]; 300 ppm): 0.34; Average % Red Pixel Area [9]: 4.71%; Fold Change From control [9]: 1.03
2 | CC/C=C\C[C@H]1C(=O)CC[C@@H]1CC(=O)O [jasmonic acid] | 38.66 | 9.64 | 38.27 | 0.20 | 71.99 | 1.25 | 5.00 | −0.46 | 31.37 | 2.42 | 30.79 | 3.80 | 79.81 | 9.84 | 61.5 | 15.53 | 63.91 | 1.30 | 85.52 | 1.74 | Average % Red Pixel Area ([7]; 50 ppm): 30.90%; Fold Change From control ([7]; 50 ppm): 3.54; Average % Red Pixel Area ([7]; 300 ppm): 45.18%; Fold Change From control ([7]; 300 ppm): 5.65; Average % Red Pixel Area ([8]; 50 ppm): 43.46%; Fold Change From control ([8]; 50 ppm): 2.91; Average % Red Pixel Area ([8]; 300 ppm): 63.02%; Fold Change From control ([8]; 300 ppm): 4.67; Average % Red Pixel Area [9]: 24.85%; Fold Change From control [9]: 5.41
